Test results: patent US7332596B1 (priority 1999, dated 2008)
Where no end group is shown, it is not given here.

Columns and labels:
[1] = Freshly isolated potato intercellular wash fluid (pIWF); conditions: Russet Burbank potato, up to 5 minutes

In the case of “VKVGLATKAERASRQQRKQRKNRQKTLMGTAKVKGAKAKK”, the cleaved bond [1] is reported as “A-T and L-M and M-G and A-K”.

For “MKIRASIRRISGKSRPIRRRKRVMIISSNPRHKQKQG [BL36]”, the IC50 (Phytophthora infestans) was 3400 nM and the IC50 (Fusarium culmorum) was 2300 nM.

In the case of “VKVGLATKAERASRQQRKQRKNRQKTLRGTAQVKGAKAKK”, the cleaved bond [1] is reported as “A-T and L-R and R-G and A-Q”.

With “VKVGLATKAERASRQQRKQRKNRQKTRRGTRKVKGAKAKK” the cleaved bond [1] was “A-T and T-R and G-T and R-K”.

For “VKVGLATKAERASRQQRKQRKNRQKTRRGTAKVKGAKAKK”, the cleaved bond [1] was “R-R and G-T and A-K and A-T”.

Work on `CSCC[C@H](N)C(=O)N[C@@H](CCCNC(=N)N)C(=O)N[C@@H](C)C(=O)N[C@@H](CCCCN)C(=O)N[C@@H](Cc1c[nH]c2ccccc12)C(=O)N[C@@H](CCCNC(=N)N)C(=O)N[C@@H](CCCCN)C(=O)N[C@@H](CCCCN)C(=O)N[C@@H](CCCNC(=N)N)C(=O)N[C@H](C(=O)N[C@@H](CCCNC(=N)N)C(=O)N[C@@H](CCCNC(=N)N)C(=O)N[C@@H](CC(C)C)C(=O)N[C@@H](CCCCN)C(=O)N[C@@H](CCCNC(=N)N)C(=O)N[C@@H](CCCCN)C(=O)N[C@@H](CCCNC(=N)N)C(=O)N[C@@H](CCCNC(=N)N)C(=O)N[C@@H](CCCCN)C(=O)N[C@H](C(=O)N[C@@H](CCCNC(=N)N)C(=O)N[C@@H](C)C(=O)N[C@@H](CCCNC(=N)N)C(=O)N[C@@H](CO)C(=O)N[C@@H](CCCCN)C(=O)O)C(C)C)[C@@H](C)O` [YL41] yielded an IC50 (Phytophthora infestans) of 4500 nM and an IC50 (Fusarium culmorum) of 1200 nM.

With “VKVGLATKAERASRQQRKQRKNRQKTLRGTRKVKGAKAKK” the cleaved bond [1] was “A-T and L-R and R-G and R-K”.

In the case of “VKVGLATKAERASRQQRKQRKNRQKTLRGTAKVKGAKAKK”, the cleaved bond [1] is reported as “A-T and L-R and R-G and A-K”.

In the case of “VKVGLATKAERASRQQRKQRKNRQKTLRGTAKVKGAKAKK [Synthetic FCWP1]”, the “IC50 P. infestans High salt” value (Phytophthora infestans) is reported as 20 µg/mL, the “IC50 P. infestans Low salt” value (Phytophthora infestans) is reported as 10 µg/mL and the “IC50 F. culmorum High salt” value (Fusarium culmorum) is reported as 85 µg/mL. The “IC50 F. culmorum Low salt” value (Fusarium culmorum) was 6 µg/mL, the “IC50 S. nodorum High salt” value (S. nodorum) was >170 µg/mL and the “IC50 S. nodorum Low salt” value (S. nodorum) was 22 µg/mL.

With “MAVPKKRTSISKKRIRKKIWKRKGYWTSLKAFSLGKSLSTGNSKSFFVQQNK [BL32]” the IC50 (Phytophthora infestans) was 6600 nM and the IC50 (Fusarium culmorum) was 1600 nM.

With “MNSHRLPGKGRRMGPIMGHTMHYRRMIITLQSSYSIPPLRKKRT [SL23]” the IC50 (Phytophthora infestans) was 7700 nM and the IC50 (Fusarium culmorum) was 2500 nM.

In the case of “VKVGLATKAERASRQQRKQRKNRQKTLMGTAQVKGAKAKK”, the cleaved bond [1] is reported as “A-T and L-M and M-G and A-Q”.
